Test results reported in US11524966B1 (Valo Early Discovery, Inc., priority 2017, dated 2022).

Target: T1, USP28 (His-tagged USP28-FL-mammalian) (Homo sapiens, UniProt Q96RU2)
T1 construct: Expression of USP28 (1-1077)-TEV-6*His (pTT5 vector); made in house; host or cells: Expi293f cells (pTT5 vector)
T1 sequence (Q96RU2 1-1077): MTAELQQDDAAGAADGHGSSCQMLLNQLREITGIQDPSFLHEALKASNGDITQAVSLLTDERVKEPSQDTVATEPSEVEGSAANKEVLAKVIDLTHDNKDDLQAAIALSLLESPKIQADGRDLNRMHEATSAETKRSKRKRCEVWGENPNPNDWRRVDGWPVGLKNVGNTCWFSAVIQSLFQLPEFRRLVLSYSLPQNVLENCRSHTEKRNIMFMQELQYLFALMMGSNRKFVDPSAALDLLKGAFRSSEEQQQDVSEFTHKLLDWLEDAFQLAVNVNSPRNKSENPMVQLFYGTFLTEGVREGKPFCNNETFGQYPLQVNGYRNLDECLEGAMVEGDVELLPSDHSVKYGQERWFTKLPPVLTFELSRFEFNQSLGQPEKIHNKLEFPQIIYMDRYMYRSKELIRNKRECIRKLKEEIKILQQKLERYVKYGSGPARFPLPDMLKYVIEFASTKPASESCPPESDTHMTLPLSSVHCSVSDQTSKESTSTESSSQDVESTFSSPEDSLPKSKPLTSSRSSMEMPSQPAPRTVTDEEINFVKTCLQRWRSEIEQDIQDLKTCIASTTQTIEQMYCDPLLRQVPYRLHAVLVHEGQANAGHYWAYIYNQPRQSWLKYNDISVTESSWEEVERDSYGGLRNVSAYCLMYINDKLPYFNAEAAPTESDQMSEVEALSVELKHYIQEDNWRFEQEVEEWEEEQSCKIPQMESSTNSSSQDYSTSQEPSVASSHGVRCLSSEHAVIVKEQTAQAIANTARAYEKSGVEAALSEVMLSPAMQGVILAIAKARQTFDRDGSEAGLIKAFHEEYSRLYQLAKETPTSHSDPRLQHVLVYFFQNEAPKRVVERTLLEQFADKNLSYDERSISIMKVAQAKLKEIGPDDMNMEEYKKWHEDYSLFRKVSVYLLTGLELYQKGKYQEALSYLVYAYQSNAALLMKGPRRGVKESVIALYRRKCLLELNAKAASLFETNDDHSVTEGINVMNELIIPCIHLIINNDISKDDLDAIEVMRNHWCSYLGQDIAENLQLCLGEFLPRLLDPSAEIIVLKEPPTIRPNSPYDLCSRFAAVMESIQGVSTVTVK
Test: Ubiquitin-Rhodamine 110 Assay for USP28 Activity, Example A-1(a)
Type: biochemical
Details: Ubiquitin-Rhodamine 110 assay, Example A-1(a); read-out: USP28 A-1(a) IC50 range
How it was run: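 Full-length His-tagged USP28 (1-1077, Expi293F-expressed; […]) was preincubated 30 min with compound (25 μM–1.3 nM, 10-point 3-fold) in 20 mM Tris-HCl pH 8.0, 3 mM BME, 0.03% BGG, 0.01% Triton X-100. Ub-Rh110 (25 nM) was then added for 45 min at room temperature, stopped with citric acid, and read by fluorescence (485/535 nm).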

Structure (SMILES) | IC50
CO[C@H]1CN(c2cc3c(cc2F)C[C@@H](NC(=O)c2sc4nc(C)ccc4c2N)CO3)C[C@@H]1N [Example 94, 3-amino-N-[(3R)-7-[(3S,4S)-3-amino-4-methoxypyrrolidin-1-yl]-6-fluoro-3,4-dihydro-2H-1-benzopyran-3-yl]-6-methylthieno[2,3-b]pyridine-2-carboxamide] | 1 to 50 nM
Cc1ccc2c(N)c(C(=O)N[C@H]3COc4c(C#N)c(N5CC6CCC(C5)N6)cc(F)c4C3)sc2n1 [Example 95, 3-amino-N-[(3R)-8-cyano-7-{3,8-diazabicyclo[3.2.1]octan-3-yl}-5-fluoro-3,4-dihydro-2H-1-benzopyran-3-yl]-6-methylthieno[2,3-b]pyridine-2-carboxamide] | 1 to 50 nM
Cc1ccc2c(N)c(C(=O)N[C@H]3COc4c(C#N)c(N5CC6CNCC(C5)O6)cc(F)c4C3)sc2n1 [Example 96, 3-amino-N-[(3R)-8-cyano-5-fluoro-7-{9-oxa-3,7-diazabicyclo[3.3.1]nonan-3-yl}-3,4-dihydro-2H-1-benzopyran-3-yl]-6-methylthieno[2,3-b]pyridine-2-carboxamide] | 1 to 50 nM
Cc1cnc2c(N)c(C(=O)N[C@H]3COc4cc(N5CC6CCC(C5)N6)c(F)c(F)c4C3)sc2n1 [Example 97, 7-amino-N-[(3R)-7-{3,8-diazabicyclo[3.2.1]octan-3-yl]-5,6-difluoro-3,4-dihydro-2H-1-benzopyran-3-yl]-3-methylthieno[2,3-b]pyrazine-6-carboxamide] | 1 to 50 nM
Cc1nc2sc(C(=O)N[C@H]3COc4c(F)c(N5CC6CCC(C5)N6)cc(F)c4C3)c(N)c2s1 [Example 98, 6-amino-N-[(3R)-7-{3,8-diazabicyclo[3.2.1]octan-3-yl}-5,8-difluoro-3,4-dihydro-2H-1-benzopyran-3-yl]-2-methylthieno[2,3-d][1, 3]thiazole-5-carboxamide] | 1 to 50 nM
Cc1ccc2c(N)c(C(=O)N[C@H]3CCc4c(ccc(N5CC6CNCC(C5)O6)c4F)C3)sc2n1 [Example 99, 3-amino-N-[(2S)-5-fluoro-6-{9-oxa-3,7-diazabicyclo[3.3.1]nonan-3-yl}-1,2,3,4-tetrahydronaphthalen-2-yl]-6-methylthieno[2,3-b]pyridine-2-carboxamide] | 1 to 50 nM
Cc1ccc2c(N)c(C(=O)N[C@@H]3CCc4c(ccc(N5CC6CNCC(C5)O6)c4F)C3)sc2n1 [Example 100, 3-amino-N-[(2R)-5-fluoro-6-{9-oxa-3,7-diazabicyclo[3.3.1]nonan-3-yl}-1,2,3,4-tetrahydronaphthalen-2-yl]-6-methylthieno[2,3-b]pyridine-2-carboxamide] | 50 to 200 nM
Cc1ccc2c(N)c(C(=O)N[C@H]3CCc4cc(N5CC6CNCC(C5)O6)c(F)cc4C3)sc2n1 [Example 101, 3-amino-N-[(2S)-7-fluoro-6-{9-oxa-3,7-diazabicyclo[3.3.1]nonan-3-yl}-1,2,3,4-tetrahydronaphthalen-2-yl]-6-methylthieno[2,3-b]pyridine-2-carboxamide] | 1 to 50 nM
Cc1ccc2c(N)c(C(=O)N[C@H]3CCc4c(ccc(N5CC6CNCC(C5)O6)c4C#N)C3)sc2n1 [Example 102, 3-amino-N-[(2S)-5-cyano-6-{9-oxa-3,7-diazabicyclo[3.3.1]nonan-3-yl}-1,2,3,4-tetrahydronaphthalen-2-yl]-6-methylthieno[2,3-b]pyridine-2-carboxamide] | 1 to 50 nM
Cc1ccc2c(N)c(C(=O)N[C@H]3COc4c(ccc(N5CC6CCC(C5)N6)c4F)C3)sc2n1 [Example 103, 3-amino-N-[(3R)-7-{3,8-diazabicyclo[3.2.1]octan-3-yl}-8-fluoro-3,4-dihydro-2H-1-benzopyran-3-yl]-6-methylthieno[2,3-b]pyridine-2-carboxamide] | 1 to 50 nM
Cc1ccc2c(N)c(C(=O)N[C@H]3COc4cc(N5CC6CCC(C5)N6)c(F)cc4C3)sc2n1 [Example 104, 3-amino-N-[(3R)-7-{3,8-diazabicyclo[3.2.1]octan-3-yl]-6-fluoro-3,4-dihydro-2H-1-benzopyran-3-yl]-6-methylthieno[2,3-b]pyridine-2-carboxamide] | 1 to 50 nM
Cc1ccc2c(N)c(C(=O)N[C@H]3COc4c(ccc(N5CC6CNCC(C5)O6)c4F)C3)sc2n1 [Example 105, 3-amino-N-[(3R)-8-fluoro-7-{9-oxa-3,7-diazabicyclo[3.3.1]nonan-3-yl}-3,4-dihydro-2H-1-benzopyran-3-yl]-6-methylthieno[2,3-b]pyridine-2-carboxamide] | 1 to 50 nM
Cc1ccc2c(N)c(C(=O)N[C@H]3COc4cc(N5CC6CNCC(C5)O6)c(F)cc4C3)sc2n1 [Example 106, 3-amino-N-[(3R)-6-fluoro-7-{9-oxa-3,7-diazabicyclo[3.3.1]nonan-3-yl}-3,4-dihydro-2H-1-benzopyran-3-yl]-6-methylthieno[2,3-b]pyridine-2-carboxamide] | 1 to 50 nM
Cc1cnc2c(N)c(C(=O)N[C@H]3COc4c(F)c(N5CC6CCC(C5)N6)cc(F)c4C3)sc2n1 [Example 107, 7-amino-N-[(3R)-7-{3,8-diazabicyclo[3.2.1]octan-3-yl}-5,8-difluoro-3,4-dihydro-2H-1-benzopyran-3-yl]-3-methylthieno[2,3-b]pyrazine-6-carboxamide] | 1 to 50 nM
Cc1nc2sc(C(=O)N[C@H]3COc4cc(N5CC6CCC(C5)N6)c(F)c(F)c4C3)c(N)c2s1 [Example 108, 6-amino-N-[(3R)-7-{3,8-diazabicyclo[3.2.1]octan-3-yl}-5,6-difluoro-3,4-dihydro-2H-1-benzopyran-3-yl]-2-methylthieno[2,3-d][1,3]thiazole-5-carboxamide] | 1 to 50 nM
Cc1ccc2c(N)c(C(=O)N[C@H]3CCc4cc(N5CC6CNCC(C5)O6)c(C#N)cc4C3)sc2n1 [Example 109, 3-amino-N-[(2S)-7-cyano-6-{9-oxa-3,7-diazabicyclo[3.3.1]nonan-3-yl}-1,2,3,4-tetrahydronaphthalen-2-yl]-6-methylthieno[2,3-b]pyridine-2-carboxamide] | 1 to 50 nM
Cc1ccc2c(N)c(C(=O)N[C@H]3COc4c(F)c(N5C[C@@H]6C[C@H]5CN6)cc(F)c4C3)sc2n1 [Example 110, 3-amino-N-[(3R)-7-[(1S,4S)-2,5-diazabicyclo[2.2.1]heptan-2-yl]-5,8-difluoro-3,4-dihydro-2H-1-benzopyran-3-yl]-6-methylthieno[2,3-b]pyridine-2-carboxamide] | 1 to 50 nM
Cc1ccc2c(N)c(C(=O)N[C@H]3COc4c(F)c(N5C[C@H]6C[C@@H]5CN6)cc(F)c4C3)sc2n1 [Example 111, 3-amino-N-[(3R)-7-[(1R,4R)-2,5-diazabicyclo[2.2.1]heptan-2-yl]-5,8-difluoro-3,4-dihydro-2H-1-benzopyran-3-yl]-6-methylthieno[2,3-b]pyridine-2-carboxamide] | 1 to 50 nM
Cc1ccc2c(N)c(C(=O)N[C@H]3COc4cc(N5C[C@@H]6C[C@H]5CN6)c(F)c(F)c4C3)sc2n1 [Example 112, 3-amino-N-[(3R)-7-[(1S,4S)-2,5-diazabicyclo[2.2.1]heptan-2-yl]-5,6-difluoro-3,4-dihydro-2H-1-benzopyran-3-yl]-6-methylthieno[2,3-b]pyridine-2-carboxamide] | 1 to 50 nM
Cc1ccc2c(N)c(C(=O)N[C@H]3COc4nc(N5CC6CNCC(C5)C6(F)F)ccc4C3)sc2n1 [Example 113, 3-amino-N-[(3R)-7-{9 9-difluoro-3,7-diazabicyclo[3.3.1]nonan-3-yl}-2H b,3H,4H-pyrano[2,3-b]pyridin-3-yl]-6-methylthieno[2,3-b]pyridine-2-carboxamide] | 1 to 50 nM
CCO[C@H]1CN(c2ccc3c(c2)OC[C@H](NC(=O)c2sc4nc(C)ccc4c2N)C3)C[C@@H]1N [Example 115, 3-amino-N-[(3R)-7-[(3S,4S)-3-amino-4-ethoxypyrrolidin-1-yl]-3,4-dihydro-2H-1-benzopyran-3-yl]-6-methylthieno[2,3-b]pyridine-2-carboxamide] | 1 to 50 nM
CO[C@H]1CN(c2ccc3c(c2)CC[C@H](NC(=O)c2sc4nc(C)ccc4c2N)C3)C[C@@H]1N [Example 116, 3-amino-N-[(2S)-6-[(3S,4S)-3-amino-4-methoxypyrrolidin-1-yl}-1,2,3,4-tetrahydronaphthalen-2-yl]-6-methylthieno[2,3-b]pyridine-2-carboxamide] | 50 to 200 nM
